Experimental data published in ChEMBL document CHEMBL5576083, “Structure-Based Design and Synthesis of Covalent Inhibitors for Deubiquitinase and Acetyltransferase ChlaDUB1 of Chlamydia trachomatis” (J Med Chem, 2024).
Active and inactive are the calls of the source. No cut-off for these calls is given here.

Assays:
[1] = molecular target: T1, Ubiquitin carboxyl-terminal hydrolase 25 (Homo sapiens) (UniProt Q9UHP3); test: Inhibition of human USP25 (765 to 1055 residues) expressed in Escherichia coli Rosetta 2 (DE3) cells using Ub-Rh110Gly as fluorogenic substrate at 40 uM preincubated for 1 hr followed by substrate addition by plate reader analysis
T1 sequence (whole entry): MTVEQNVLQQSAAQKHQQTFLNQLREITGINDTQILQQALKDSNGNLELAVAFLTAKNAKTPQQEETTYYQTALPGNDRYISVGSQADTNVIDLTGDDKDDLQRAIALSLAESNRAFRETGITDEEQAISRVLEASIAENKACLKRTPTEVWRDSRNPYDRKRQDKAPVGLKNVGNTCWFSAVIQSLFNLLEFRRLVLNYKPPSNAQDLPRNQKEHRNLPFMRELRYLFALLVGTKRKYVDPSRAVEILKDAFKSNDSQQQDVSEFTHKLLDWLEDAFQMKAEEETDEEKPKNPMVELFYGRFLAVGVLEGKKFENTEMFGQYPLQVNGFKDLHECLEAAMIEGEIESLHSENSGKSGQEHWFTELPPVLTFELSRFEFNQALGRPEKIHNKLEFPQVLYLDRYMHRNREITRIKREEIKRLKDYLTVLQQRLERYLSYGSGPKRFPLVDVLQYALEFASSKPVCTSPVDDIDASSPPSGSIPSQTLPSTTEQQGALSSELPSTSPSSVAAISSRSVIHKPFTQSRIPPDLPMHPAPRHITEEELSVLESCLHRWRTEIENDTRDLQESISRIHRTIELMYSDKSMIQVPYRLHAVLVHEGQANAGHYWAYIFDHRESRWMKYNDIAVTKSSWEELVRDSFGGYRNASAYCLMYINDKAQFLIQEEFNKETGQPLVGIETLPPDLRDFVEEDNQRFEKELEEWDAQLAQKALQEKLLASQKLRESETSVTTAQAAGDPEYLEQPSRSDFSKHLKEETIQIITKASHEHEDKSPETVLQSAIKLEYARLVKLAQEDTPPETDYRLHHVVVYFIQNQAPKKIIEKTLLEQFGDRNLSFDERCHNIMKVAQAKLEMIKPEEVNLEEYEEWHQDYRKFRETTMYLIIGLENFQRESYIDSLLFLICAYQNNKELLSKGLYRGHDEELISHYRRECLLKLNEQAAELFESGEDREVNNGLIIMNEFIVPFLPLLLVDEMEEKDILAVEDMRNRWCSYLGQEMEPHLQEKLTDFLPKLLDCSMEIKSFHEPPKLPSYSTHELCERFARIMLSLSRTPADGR

[2] = molecular target: Ubiquitin carboxyl-terminal hydrolase 14 (Homo sapiens) (UniProt P54578); test: Inhibition of human USP14 using Ub-Rh110Gly as fluorogenic substrate at 40 uM preincubated for 1 hr followed by substrate addition by plate reader analysis
Sequence of Ubiquitin carboxyl-terminal hydrolase 14 (Homo sapiens) (P54578 whole entry): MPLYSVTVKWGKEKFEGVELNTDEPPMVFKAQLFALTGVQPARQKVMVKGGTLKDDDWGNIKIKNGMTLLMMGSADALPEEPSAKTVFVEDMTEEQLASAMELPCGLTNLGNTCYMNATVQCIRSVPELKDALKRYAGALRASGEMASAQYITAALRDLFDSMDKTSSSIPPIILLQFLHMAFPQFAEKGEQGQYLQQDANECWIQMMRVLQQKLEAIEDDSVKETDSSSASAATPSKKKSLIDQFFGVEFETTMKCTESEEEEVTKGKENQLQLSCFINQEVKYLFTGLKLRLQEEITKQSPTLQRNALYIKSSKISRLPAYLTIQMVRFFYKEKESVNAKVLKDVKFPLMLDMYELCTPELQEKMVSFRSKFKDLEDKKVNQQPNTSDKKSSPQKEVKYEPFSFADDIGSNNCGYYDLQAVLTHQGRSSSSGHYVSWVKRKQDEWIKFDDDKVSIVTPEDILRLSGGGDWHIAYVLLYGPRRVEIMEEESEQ

[3] = molecular target: Ubiquitin carboxyl-terminal hydrolase 7 (Homo sapiens) (UniProt Q93009); test: Inhibition of 6His-tagged human USP7 using Ub-Rh110Gly as fluorogenic substrate at 40 uM preincubated for 1 hr followed by substrate addition by plate reader analysis
Sequence of Ubiquitin carboxyl-terminal hydrolase 7 (Homo sapiens) (Q93009 whole entry, looked up): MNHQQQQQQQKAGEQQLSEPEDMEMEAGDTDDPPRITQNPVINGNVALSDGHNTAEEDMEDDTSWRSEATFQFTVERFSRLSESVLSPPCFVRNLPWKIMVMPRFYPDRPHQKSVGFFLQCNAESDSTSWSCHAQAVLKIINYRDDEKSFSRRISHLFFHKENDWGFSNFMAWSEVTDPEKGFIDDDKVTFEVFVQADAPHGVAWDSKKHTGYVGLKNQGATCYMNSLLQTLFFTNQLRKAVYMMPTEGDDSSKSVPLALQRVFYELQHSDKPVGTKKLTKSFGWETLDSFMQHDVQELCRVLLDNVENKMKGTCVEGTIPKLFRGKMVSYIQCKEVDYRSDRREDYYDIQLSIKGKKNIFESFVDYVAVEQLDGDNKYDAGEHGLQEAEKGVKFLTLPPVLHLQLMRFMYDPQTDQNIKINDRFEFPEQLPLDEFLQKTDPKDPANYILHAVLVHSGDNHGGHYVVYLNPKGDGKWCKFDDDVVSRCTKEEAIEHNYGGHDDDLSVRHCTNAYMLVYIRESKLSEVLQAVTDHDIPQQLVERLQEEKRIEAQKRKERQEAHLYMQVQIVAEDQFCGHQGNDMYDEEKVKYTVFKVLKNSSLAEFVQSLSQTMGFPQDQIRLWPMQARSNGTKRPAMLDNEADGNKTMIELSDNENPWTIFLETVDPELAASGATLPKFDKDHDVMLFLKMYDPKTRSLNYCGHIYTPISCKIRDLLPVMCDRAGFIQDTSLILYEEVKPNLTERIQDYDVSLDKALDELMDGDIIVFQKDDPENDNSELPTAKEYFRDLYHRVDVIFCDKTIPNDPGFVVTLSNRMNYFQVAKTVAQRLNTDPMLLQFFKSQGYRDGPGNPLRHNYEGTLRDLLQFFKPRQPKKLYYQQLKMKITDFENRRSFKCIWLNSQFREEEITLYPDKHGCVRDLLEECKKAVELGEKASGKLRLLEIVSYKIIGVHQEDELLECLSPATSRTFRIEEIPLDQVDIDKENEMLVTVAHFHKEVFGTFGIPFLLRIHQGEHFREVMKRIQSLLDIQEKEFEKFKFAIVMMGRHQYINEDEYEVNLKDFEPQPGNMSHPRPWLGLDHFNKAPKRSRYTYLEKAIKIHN

[4] = test system: Chlamydia trachomatis; test: Antimicrobial activity against Chlamydia trachomatis serovar L2 infected in human HeLa cells assessed as inclusion forming unit at 12.5 ug/ml measured at 24 to 48 hrs of post-infection by immunofluorescence based microscopic analysis; assay type: functional; settings: dose 12.5 µg/ml; time 24-48 hrs
[5] = test system: Chlamydia trachomatis; test: Antimicrobial activity against Chlamydia trachomatis serovar L2 infected in human HeLa cells assessed as reduction in inclusion area at 6.25 ug/ml measured after 24 hrs of post-infection by microscopic analysis; assay type: functional; settings: dose 6.25 µg/ml
[6] = test system: Chlamydia trachomatis; test: Antimicrobial activity against Chlamydia trachomatis serovar L2 infected in human HeLa cells assessed as change in inclusion morphology at 1.56 to 12.5 ug/ml measured after 24 hrs of post-infection by immunofluorescence based microscopic analysis; assay type: functional, organism-based; settings: dose 1.56-12.5 µg/ml
[7] = test system: Chlamydia trachomatis; test: Antimicrobial activity against Chlamydia trachomatis serovar L2 infected in human HeLa cells assessed as reduction in microbial progeny at 12.5 ug/ml measured after 24 hrs of post-infection by immunofluorescence analysis; assay type: functional; set-up: scale not given: the % may be the effect or the level left; settings: dose 12.5 µg/ml
[8] = test system: Chlamydia trachomatis; test: Antimicrobial activity against Chlamydia trachomatis serovar L2 infected in human HeLa cells assessed as reduction in microbial progeny at 6.25 ug/ml measured after 24 hrs of post-infection by immunofluorescence analysis; assay type: functional; set-up: scale not given: the % may be the effect or the level left; settings: dose 6.25 µg/ml
[9] = test system: Chlamydia trachomatis; test: Antimicrobial activity against Chlamydia trachomatis serovar L2 infected in human HeLa cells assessed as reduction in microbial progeny at 6.25 ug/ml measured after 48 hrs of post-infection by immunofluorescence analysis; assay type: functional; set-up: scale not given: the % may be the effect or the level left; settings: dose 6.25 µg/ml
[10] = test system: Chlamydia trachomatis; test: Antimicrobial activity against Chlamydia trachomatis serovar L2 infected in human HeLa cells assessed as reduction in inclusion area at 1.56 ug/ml measured after 24 hrs of post-infection by microscopic analysis; assay type: functional; settings: dose 1.56 µg/ml

Q: For `N#Cc1ncc(C(=O)NCc2ccc(C(=O)NC34CC5CC(CC(C5)C3)C4)cc2)cn1`, which inhibition [1] is on record?
A: inactive

Q: What about the inhibition [2] of the same compound?
A: inactive

Q: What about the inhibition [3] of the same compound?
A: inactive

Q: And the Activity [4]?
A: 3.7 10^6IFU/ml

Q: What about the Activity [5] of the same compound?
A: 47.16 um2

Q: And the Activity [6]?
A: inactive

Q: What about the Activity [7] of the same compound?
A: 80%

Q: What about the Activity [8] of the same compound?
A: 66.5%

Q: And the Activity [9]?
A: 41%

Q: And the Activity [10]?
A: 70.68 um2
